The target in one experiment is T1, human LPAR1 (Homo sapiens, UniProt Q92633).
T1 construct: expressed in transfected cells
T1 sequence (Q92633 whole entry): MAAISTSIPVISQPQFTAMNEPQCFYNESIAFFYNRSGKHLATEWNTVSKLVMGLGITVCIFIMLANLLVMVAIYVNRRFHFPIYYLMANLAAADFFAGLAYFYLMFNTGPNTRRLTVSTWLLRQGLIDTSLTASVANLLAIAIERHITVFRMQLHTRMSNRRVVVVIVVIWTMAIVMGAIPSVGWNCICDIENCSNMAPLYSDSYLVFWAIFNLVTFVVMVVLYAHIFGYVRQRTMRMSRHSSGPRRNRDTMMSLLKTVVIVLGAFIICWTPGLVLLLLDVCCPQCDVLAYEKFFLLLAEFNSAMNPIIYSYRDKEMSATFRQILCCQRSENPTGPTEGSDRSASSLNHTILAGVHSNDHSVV
Nature of the experiment: Test Example 1: antagonism against response of LPA-induced increase in intracellular Ca2+ concentration in RH7777 cells stably expressing human LPAR1. The format is cell-based.
Conditions: not given
The protocol:
(1) Preparation of RH7777 cells stably expressing human LPAR1
The human LPAR1 expression vector was transfected into RH7777 cells to acquire human LPAR1 expressing cells.
(2) Test of antagonism against response of LPA-induced increase in intracellular Ca^2+ concentration
Cells stably expressing human LPAR1 were used for a test of antagonism against response of LPA-induced increase in intracellular Ca^2+ concentration.
The cells were seeded onto the Poly-D-Lysine 96 well black plate and incubated overnight. […] 50 μL of the Basal Buffer (1×HBSS, 20 mM HEPES, 2.5 mM Probenecid, 0.05% BSA, 0.25 mg/mL Amaranth, pH 7.4) containing the test compound was added thereto, followed by incubation at 37° C. for 30 minutes. In FDSS6000 (Hamamatsu Photonics K.K.), LPAs were added, and the change in intracellular Ca^2+ concentration was detected using the fluorescence value of a wavelength of 540 nm by an excitation wavelength of 480 nm as an indicator. […] The Rmax under […] without the test compound was used as the control value. The Rmax under Basal Buffer stimulation with no LPAs or test compounds was used as the basal value.
The percentage (%) of increase in intracellular Ca^2+ concentration was calculated by dividing the value obtained by subtracting the basal value from Rmax in the presence of LPAs and each concentration of the test compound by the value obtained by subtracting the basal value from the control value. The concentration of each test compound was plotted on the X axis and the percentage (%) of increase in intracellular Ca^2+ concentration was plotted on the Y axis, and the IC50 value was calculated by nonlinear regression using XLfit.
Take `CCCCC(NC(=O)N(CCCCc1ccccc1)Cc1cc(OC)c(C)c(OC)c1)C(=O)O` (centres unmarked) [Example 1-3]: the IC50 was 1800 nM.

Turning to `COc1cc(CN(CCCCc2ccccc2)C(=O)NC(CC(C)C)C(=O)O)cc(OC)c1C` (centres unmarked) [Example 1-5], the IC50 was found to be 4680 nM.

The same experiment, now with this note: RH7777 cells stably expressing human LPAR1; Fluo-4 fluorescence, FDSS6000; read-out: IC50 value (concentration producing 50% antagonism against response of LPA-induced increase in intracellular Ca2+ concentration) (converted).
On to `CCOc1cc([C@@H](C)N(CCCCc2ccccc2)C(=O)NC2(C(=O)O)CCC2)cc(OCC)c1C(C)O` (single isomer, unassigned) [Example 1-21], for which the IC50 was 3.38 nM.

For the molecule `CCOc1cc([C@@H](C)N(CCCCc2ccccc2)C(=O)NC2(C(=O)O)CCC2)cc(OCC)c1C(C)O` (single isomer, unassigned) [Example 1-22], the IC50 is 1.47 nM.

Consider `CCOc1cc([C@@H](C)N(CCCCc2ccccc2)C(=O)NC2(C(=O)O)CC(F)(F)C2)cc(OCC)c1C(C)O` (single isomer, unassigned) [Example 1-35], for which the IC50 was 1.81 nM.

Take `CCOc1cc([C@@H](C)N(CCCCc2ccccc2)C(=O)NC2(C(=O)O)CC(F)(F)C2)cc(OCC)c1C(C)O` (single isomer, unassigned) [Example 1-36]: the IC50 was 1.04 nM.

Regarding `CCOc1c(C(C)O)ccc([C@@H](C)N(CCCCc2ccccc2)C(=O)NC2(C(=O)O)CC(F)(F)C2)c1C` (single isomer, unassigned) [Example 1-78], the IC50 is 5.87 nM.

In the case of `CCOc1c(C(C)O)ccc([C@@H](C)N(CCCCc2ccccc2)C(=O)NC2(C(=O)O)CC(F)(F)C2)c1C` (single isomer, unassigned) [Example 1-79], the IC50 is 7.86 nM.

On to `CCOc1cc([C@@H](C)N(CCCCc2ccccc2)C(=O)NC2(C(=O)O)CC(OC)C2)cc(OCC)c1C(C)O` (single isomer, unassigned) [Example 1-88], for which the IC50 was 3.35 nM.

Regarding `CCOc1cc([C@@H](C)N(CCCCc2ccccc2)C(=O)NC2(C(=O)O)CC(OC)C2)cc(OCC)c1C(C)O` (single isomer, unassigned) [Example 1-89], the IC50 was 2.21 nM.

Turning to `CCOc1cc([C@@H](C)N(CCCC(F)(F)c2ccccc2)C(=O)NC2(C(=O)O)CC(OC)C2)cc(OCC)c1C(C)O` (single isomer, unassigned) [Example 4-61], the IC50 is 3.99 nM.

For the molecule `CCOc1cc([C@@H](C)N(CCCC(F)(F)c2ccccc2)C(=O)NC2(C(=O)O)CC(OC)C2)cc(OCC)c1C(C)O` (single isomer, unassigned) [Example 4-62], the IC50 is 5.15 nM.

For `CCOc1cc([C@@H](C)N(CCC(F)(F)Cc2ccccc2)C(=O)NC2(C(=O)O)CC(F)(F)C2)cc(OCC)c1C(C)O` (single isomer, unassigned) [Example 4-85], the IC50 was 16.1 nM.

On to `CCOc1cc([C@@H](C)N(CCC(F)(F)Cc2ccccc2)C(=O)NC2(C(=O)O)CC(F)(F)C2)cc(OCC)c1C(C)O` (single isomer, unassigned) [Example 4-86], for which the IC50 was 2.75 nM.

Take `CCOc1cc([C@@H](C)N(CCO[C@@H](C)c2ccccc2)C(=O)NC2(C(=O)O)CCOCC2)cc(OCC)c1C(C)O` (single isomer, unassigned) [Example 4-143]: the IC50 was 47.4 nM.

For the molecule `CCOc1cc([C@@H](C)N(CCO[C@@H](C)c2ccccc2)C(=O)NC2(C(=O)O)CCOCC2)cc(OCC)c1C(C)O` (single isomer, unassigned) [Example 4-144], the IC50 was 8.19 nM.

On to `CCOc1cc([C@@H](C)N(CCCCc2ccccc2)C(=O)NC2(C(=O)O)CC(F)(F)C2)c(Cl)c(OCC)c1C(C)O` (single isomer, unassigned) [Example 5-52], for which the IC50 was 1.95 nM.

For `CCOc1cc([C@@H](C)N(CCCCc2ccccc2)C(=O)NC2(C(=O)O)CC(F)(F)C2)c(Cl)c(OCC)c1C(C)O` (single isomer, unassigned) [Example 5-53], the IC50 was 2.54 nM.

Regarding `CCOc1cc([C@@H](C)N(CCOCc2ccccc2)C(=O)NC2(C(=O)O)CC(F)(F)C2)c(Cl)c(OCC)c1C(C)O` (single isomer, unassigned) [Example 5-55], the IC50 is 1.09 nM.

For the molecule `CCOc1cc([C@@H](C)N(CCOCc2ccccc2)C(=O)NC2(C(=O)O)CC(F)(F)C2)c(Cl)c(OCC)c1C(C)O` (single isomer, unassigned) [Example 5-56], the IC50 is 1.04 nM.

Turning to `CCOc1cc([C@@H](C)N(CCO[C@@H](C)c2ccccc2)C(=O)NC2(C(=O)O)CC(OC)C2)c(Cl)c(OCC)c1C(C)O` (single isomer, unassigned) [Example 5-57], the IC50 was 4.08 nM.

As for `CCOc1cc([C@@H](C)N(CCO[C@@H](C)c2ccccc2)C(=O)NC2(C(=O)O)CC(OC)C2)c(Cl)c(OCC)c1C(C)O` (single isomer, unassigned) [Example 5-58], the IC50 is 3.82 nM.

As to `CCOc1cc([C@@H](C)N(CCO[C@@H](C)c2ccccc2)C(=O)N[C@]2(C(=O)O)C[C@H](OC)C2)c(Cl)c(OCC)c1C(C)O` (single isomer, unassigned) [Example 5-59], the IC50 is 8.01 nM.

With `CCOc1cc([C@@H](C)N(CCO[C@@H](C)c2ccccc2)C(=O)N[C@]2(C(=O)O)C[C@H](OC)C2)c(Cl)c(OCC)c1C(C)O` (single isomer, unassigned) [Example 5-60], the IC50 is 9.05 nM.

As to `CCOc1cc([C@@H](C)N(CCO[C@@H](C)c2ccccc2)C(=O)N[C@]2(C(=O)O)C[C@@H](OCC)C2)c(Cl)c(OCC)c1C(C)O` (single isomer, unassigned) [Example 5-61], the IC50 was 3.17 nM.

Take `CCOc1cc([C@@H](C)N(CCO[C@@H](C)c2ccccc2)C(=O)N[C@]2(C(=O)O)C[C@@H](OCC)C2)c(Cl)c(OCC)c1C(C)O` (single isomer, unassigned) [Example 5-62]: the IC50 was 1.56 nM.

Turning to `CCOc1cc([C@@H](C)N(CCOCc2ccccc2)C(=O)NC2CCOCC2C(=O)O)c(Cl)c(OCC)c1C(C)O` (single isomer, unassigned) [Example 5-69], the IC50 is 3.3 nM.

In the case of `CCOc1cc([C@@H](C)N(CCOCc2ccccc2)C(=O)NC2CCOCC2C(=O)O)c(Cl)c(OCC)c1C(C)O` (single isomer, unassigned) [Example 5-70], the IC50 was 4.29 nM.

Take `CCNc1cc(C(C)N(CCCCc2ccccc2)C(=O)NC2(C(=O)O)CCC2)cc(OCC)c1C(C)=O` (single isomer, unassigned) [Example 5-111]: the IC50 is 128 nM.

`CCOc1cc(C(C)N(CCCCc2ccccc2)C(=O)NC2(P(=O)(O)O)CCCC2)cc(OCC)c1C` (single isomer, unassigned) [Example 8-1, [1-({[1-(3,5-Diethoxy-4-Methylphenyl)Ethyl](4-Phenylbutyl) Carbamoyl}Amino)Cyclopentyl]Phosphonic Acid]: the IC50 is 52.1 nM.

Take `CCOc1cc(C(C)N(CCCCc2ccccc2)C(=O)NC2(P(=O)(O)O)CCCC2)cc(OCC)c1C` (single isomer, unassigned) [Example 8-2]: the IC50 was 20 nM.

On to `CCOc1cc(C(C)N(CCCCc2ccccc2)C(=O)NC2(c3nn[nH]n3)CC(F)(F)C2)c(Cl)c(OCC)c1C(C)=O` (centres unmarked) [10-8], for which the IC50 is 9.3 nM.

On to `CCOc1cc([C@@H](C)N(CCCCc2ccccc2)C(=O)NC(C)(C)C(=O)O)cc(OCC)c1C(C)=O` [Example 1-1, N-{[(1R)-1-(4-Acetyl-3,5-Diethoxyphenyl)Ethyl](4-Phenylbutyl) Carbamoyl}-2-Methylalanine], for which the IC50 is 3.17 nM.

Take `CCCCC(NC(=O)N(CCCCc1ccccc1)[C@H](C)c1cc(OCC)c(C)c(OCC)c1)C(=O)O` (some centres unmarked) [Example 1-4]: the IC50 was 25.5 nM.

In the case of `COc1cc(CN(CCCCc2ccccc2)C(=O)NC(CC(F)(F)F)C(=O)O)cc(OC)c1C` (centres unmarked) [Example 1-6], the IC50 is 1580 nM.

In the case of `CCOc1cc(C(C)N(CCCCc2ccccc2)C(=O)NC(Cc2ccccc2)C(=O)O)cc(OCC)c1C` (centres unmarked) [Example 1-8], the IC50 is 125 nM.

With `CCOc1cc(C(C)N(CCCCc2ccccc2)C(=O)NC(CCc2ccccc2)C(=O)O)cc(OCC)c1C` (centres unmarked) [Example 1-9], the IC50 is 129 nM.

Consider `CCOc1cc(C(C)N(CCCCc2ccccc2)C(=O)NC(Cc2cccnc2)C(=O)O)cc(OCC)c1C` (centres unmarked) [Example 1-10], for which the IC50 was 88.5 nM.

In the case of `CCOc1cc([C@@H](C)N(CCCCc2ccccc2)C(=O)NC(C(=O)O)C(C)O)cc(OCC)c1C` (some centres unmarked) [Example 1-11], the IC50 was 352 nM.

With `CCOc1cc(C(C)N(CCCCc2ccccc2)C(=O)NC(CC(=O)O)C(=O)O)cc(OCC)c1C` (centres unmarked) [Example 1-12], the IC50 was 3600 nM.

On to `CCOc1cc([C@@H](C)N(CCCCc2ccccc2)C(=O)NC(C)(C)C(=O)O)cc(OCC)c1C` [Example 1-13], for which the IC50 is 20.4 nM.

In the case of `COc1cc(CN(CCCCc2ccccc2)C(=O)NCC(C(=O)O)C(C)C)cc(OC)c1C` (centres unmarked) [Example 1-14], the IC50 was 5690 nM.

Regarding `CCOc1cc([C@@H](C)N(CCCCc2ccccc2)C(=O)NCCCC(=O)O)cc(OCC)c1C` [Example 1-15], the IC50 was 280 nM.

On to `CCOc1cc([C@@H](C)N(CCCCc2ccccc2)C(=O)NC2(C(=O)O)CC2)cc(OCC)c1C(C)=O` [Example 1-16, 1-({[(1R)-1-(4-Acetyl-3,5-Diethoxyphenyl)Ethyl](4-Phenylbutyl) Carbamoyl}Amino)Cyclopropane-1-Carboxylic Acid], for which the IC50 is 2.23 nM.

The values are drawn from US12338203B2 (TAISHO PHARMACEUTICAL CO., LTD., priority 2019, dated 2025).
